The assay relates to IL-1β release upon NLRP3 activation in peripheral blood mononuclear cells (PBMC). The assay can be described thus: PBMC IC50 determination assay (IL-1β release, Protocol A ELISA / Protocol B HTRF). Type of assay: cell-based. The conditions noted are these: Homo sapiens; PBMC primed with LPS 3 h, compound 30 min, stimulated with ATP (5 mM) or nigericin (10 μM) 1 h; IL-1β in media; read-out: Average PBMC IC50. The method, then:
The compounds of the present disclosure were tested for their inhibitory activity against IL-1β release upon NLRP3 activation in peripheral blood mononuclear cells (PBMC).
Isolated cells were seeded into the wells of a 96-well plate and incubated for 3 h with lipopolysaccharide (LPS). Following medium exchange, the compounds of the present disclosure were added (a single compound per well) and the cells were incubated for 30 min. Next, the cells were stimulated either with ATP (5 mM) or nigericin (10 μM) for 1 h and the cell culture media from the wells were collected for further analysis.
The release of IL1-β into the media was determined by a quantitative detection of IL-1β in the media using an IL-1β enzyme-linked immunosorbent assay (ELISA) Ready-SET-Go!, eBioscience cat. […] Subsequently, plates were blocked with blocking buffer for 1 h at room temperature (rt) and after washing with a buffer (PBS with 0.05% Tween-20) incubated with protein standard and culture media. […] Plates were washed and incubated with HRP-streptavidin for 30 min at rt and washed again. The signal was developed after addition of 3,3′,5,5′-tetramethylbenzidine-peroxidase (TMB) until colour appeared and the reaction was stopped by 2 M H2SO4. A microplate spectrophotometer (BioTek) was used to detect signals with 450 nm. The detection range of IL-1β ELISA was 2-150 ng/ml.
Isolated cells were seeded into the wells (280,000 cells/well) of a 96-well plate and incubated for 3 h with lipopolysaccharide (LPS, 1 μg/ml diluted 1000× from a 1 mg/ml stock solution). The compounds of the present disclosure were added (a single compound per well) and the cells were incubated for 30 min. Next, the cells were stimulated with ATP (5 mM final concentration diluted 20× from a 100 mM stock solution) for 1 h and the cell culture media from the wells were collected for further analysis.
The release of IL-1β into the media was determined by quantitative detection of IL-1β in the media using HTRF®, CisBio cat. No. 62HIL1BPEH. Briefly, cell culture supernatant were dispensed directly into the assay plate containing antibodies labelled with the HTRF® donor and acceptor. A microplate spectrophotometer (BMG) was used to detect signals at 655 nm and 620 nm. The detection range of IL-1β HTRF® was 39-6500 pg/ml.

Molecules are shown by their SMILES.

One may read the IC50 as the point on the concentration scale where inhibition reaches its midpoint.

Take `CN1CC2(CC(N(c3cnn(C)c3)S(=O)(=O)NC(=O)Nc3c4c(cc5c3CCC5)CCC4)C2)C1` [Compound 58]: the IC50 was in the range of 10000 to 50000 nM. To `CN1CC(N(c2cnn(C)c2)S(=O)(=O)NC(=O)Nc2c3c(cc4c2CCC4)CCC3)C1` [Compound 59] belongs below 1000 nM; to `CN1CCC(N(c2cnn(C)c2)S(=O)(=O)NC(=O)Nc2c3c(cc4c2CCC4)CCC3)CC1C(F)(F)F` (stereo not shown) [Compound 60], below 1000 nM.

Consider `Cn1cc(N(C2CCN(CC(F)(F)F)C2)S(=O)(=O)NC(=O)Nc2c3c(cc4c2CCC4)CCC3)cn1` (stereo not shown) [Compound 61], for which the 50% inhibitory concentration (IC50) was below 1000 nM. In the case of `CCN1CCCC(N(c2cnn(C)c2)S(=O)(=O)NC(=O)Nc2c3c(cc4c2CCC4)CCC3)C1` (stereo not shown) [Compound 62] it was below 1000 nM. For `Cn1cc(N(CCN2CCC2)S(=O)(=O)NC(=O)Nc2c3c(cc4c2CCC4)CCC3)cn1` [Compound 63], the IC50 is below 1000 nM. On to `CC(C)N1CC(N(c2cnn(C)c2)S(=O)(=O)NC(=O)Nc2c3c(cc4c2CCC4)CCC3)C1` [Compound 64], for which the IC50 was below 1000 nM.

`Cn1cc(N(C2CCN(CC(F)(F)F)CC2)S(=O)(=O)NC(=O)Nc2c3c(cc4c2CCC4)CCC3)cn1` [Compound 65]: the IC50 is 1000 to 3000 nM. In the case of `Cn1cc(N(C2CC3(COC3)C2)S(=O)(=O)NC(=O)Nc2c3c(cc4c2CCC4)CCC3)cn1` [Compound 66] it was 1000 to 3000 nM. Take `CN1CCCC(N(c2cnn(C)c2)S(=O)(=O)NC(=O)Nc2c3c(cc4c2CCC4)CCC3)CC1` (stereo not shown) [Compound 67]: the IC50 was below 1000 nM. Turning to `CN1CCCC1CN(c1cnn(C)c1)S(=O)(=O)NC(=O)Nc1c2c(cc3c1CCC3)CCC2` (stereo not shown) [Compound 68], the IC50 was below 1000 nM. For the compound `Cn1cc(N(C2CC3(C2)CN(CC(F)(F)F)C3)S(=O)(=O)NC(=O)Nc2c3c(cc4c2CCC4)CCC3)cn1` [Compound 69], the half-maximal inhibitory concentration (IC50) was 3000 to 10000 nM. As for `CCc1cc(CC)cc(NC(=O)NS(=O)(=O)N(c2cnn(C)c2)C2CCOCC2)c1` [Compound 70], the IC50 fell in the range of 3000 to 10000 nM. For the compound `CC(C)c1cccc(NC(=O)NS(=O)(=O)N(c2cnn(C)c2)C2CCOCC2)c1` [Compound 71], the IC50 fell in the range of 10000 to 50000 nM. `Cn1cc(N(C2CCOCC2)S(=O)(=O)NC(=O)Nc2cc(Cl)cc(Cl)c2)cn1` [Compound 72]: the IC50 is 1000 to 3000 nM. Consider `CC(C)c1cc(NC(=O)NS(=O)(=O)N(c2cnn(C)c2)C2CCOCC2)cc(C(C)C)c1` [Compound 73], for which the IC50 lay within 1000 to 3000 nM. As to `CC1CN(CCN(c2cnn(C)c2)S(=O)(=O)NC(=O)Nc2c3c(cc4c2CCC4)CCC3)C1` [Compound 74], the 50% inhibitory concentration (IC50) was 3000 to 10000 nM. As for `CCc1cc(NC(=O)NS(=O)(=O)N(c2cnn(C)c2)C2CCOCC2)cc(C(F)(F)F)c1` [Compound 75], the IC50 is below 1000 nM. In the case of `CCc1cc(C)cc(NC(=O)NS(=O)(=O)N(c2cnn(C)c2)C2CCOCC2)c1` [Compound 76] it was 1000 to 3000 nM; in that of `CCc1cc(Cl)cc(NC(=O)NS(=O)(=O)N(c2cnn(C)c2)C2CCOCC2)c1` [Compound 77], 1000 to 3000 nM. In the case of `Cn1cc(N(C2CCOCC2(C)C)S(=O)(=O)NC(=O)Nc2c3c(cc4c2CCC4)CCC3)cn1` (stereo not shown) [Compound 78] it was below 1000 nM; in that of `Cn1cc(N(C2CCOC(C)(C)C2)S(=O)(=O)NC(=O)Nc2c3c(cc4c2CCC4)CCC3)cn1` (stereo not shown) [Compound 79], below 1000 nM; in that of `CCc1cc(NC(=O)NS(=O)(=O)N(c2cnn(C)c2)C2CCOCC2)cc(CC)c1F` [Compound 80], 1000 to 3000 nM. On to `CCc1cc(NC(=O)NS(=O)(=O)N(c2cnn(C)c2)C2CCOCC2)cc(C(C)C)c1` [Compound 81], for which the IC50 lay within 1000 to 3000 nM. For the compound `CN1CC(N(c2cnn(C)c2)S(=O)(=O)NC(=O)Nc2c3c(cc4c2CCC4)CCC3)CCC1=O` (stereo not shown) [Compound 82], the IC50 is below 1000 nM. On to `CN1CC(N(c2cnn(C)c2)S(=O)(=O)NC(=O)Nc2c3c(cc4c2CCC4)CCC3)CC1=O` (stereo not shown) [Compound 83], for which the IC50 lay in the range of 1000 to 3000 nM.

Regarding `C[C@H]1CC(N(c2cnn(C)c2)S(=O)(=O)NC(=O)Nc2c3c(cc4c2CCC4)CCC3)CCO1` (stereo partly shown) [Compound 84], the IC50 is below 1000 nM. On to `C[C@@H]1CC(N(c2cnn(C)c2)S(=O)(=O)NC(=O)Nc2c3c(cc4c2CCC4)CCC3)CCO1` (stereo partly shown) [Compound 85], for which the IC50 is below 1000 nM. For `Cc1ncc(N(C2CCOCC2)S(=O)(=O)NC(=O)Nc2c3c(cc4c2CCC4)CCC3)cn1` [Compound 86], the IC50 was below 1000 nM. On to `Cc1noc(N(C2CCOCC2)S(=O)(=O)NC(=O)Nc2c3c(cc4c2CCC4)CCC3)c1C` [Compound 87], for which the IC50 was below 1000 nM. Consider `CC1CCCC(C)C1NC(=O)NS(=O)(=O)N(c1cnn(C)c1)C1CCOCC1` (stereo not shown) [Compound 88], for which the half-inhibitory concentration (IC50) was below 1000 nM. As for `CC(C)c1cc(Cl)cc(NC(=O)NS(=O)(=O)N(c2cnn(C)c2)C2CCOCC2)c1` [Compound 89], the IC50 was 1000 to 3000 nM.

`CCOc1cc(NC(=O)NS(=O)(=O)N(c2cnn(C)c2)C2CCOCC2)cc(OCC)c1` [Compound 90]: the IC50 lay in the range of 10000 to 50000 nM. Consider `CN1CCCC(N(c2cnn(C)c2)S(=O)(=O)NC(=O)Nc2cc(Cl)cc(Cl)c2)C1` (stereo not shown) [Compound 91], for which the IC50 is below 1000 nM. Consider `Cn1cc(N(C2CCOCC2)S(=O)(=O)NC(=O)Nc2cc(Cl)cc(OC(F)(F)F)c2)cn1` [Compound 92], for which the IC50 lay in the range of 1000 to 3000 nM.

`COc1cc(Cl)cc(NC(=O)NS(=O)(=O)N(c2cnn(C)c2)C2CCOCC2)c1` [Compound 93]: the IC50 was below 1000 nM. Regarding `Cn1cc(N(C2CCOCC2)S(=O)(=O)NC(=O)Nc2cc(Cl)cc(Cl)c2F)cn1` [Compound 94], the concentration for half-maximal inhibition (IC50) fell in the range of 1000 to 3000 nM. Regarding `Cn1ccc(N(C2CCOCC2)S(=O)(=O)NC(=O)Nc2c3c(cc4c2CCC4)CCC3)c1` [Compound 95], the IC50 is below 1000 nM. For `Cn1ncc(N(C2CCOCC2)S(=O)(=O)NC(=O)Nc2c3c(cc4c2CCC4)CCC3)n1` [Compound 96], the half-maximal inhibitory concentration (IC50) is below 1000 nM. Turning to `CCc1cc(NC(=O)NS(=O)(=O)N(c2cnn(C)c2)C2CCCN(C)C2)cc(C(F)(F)F)c1` (stereo not shown) [Compound 97], the IC50 is below 1000 nM. With `CC(C)Cc1cc(Cl)cc(NC(=O)NS(=O)(=O)N(c2cnn(C)c2)C2CCOCC2)c1` [Compound 98], the IC50 fell in the range of 1000 to 3000 nM. Turning to `Cc1nn(C)cc1N(C1CCOCC1)S(=O)(=O)NC(=O)Nc1c2c(cc3c1CCC3)CCC2` [Compound 99], the IC50 is below 1000 nM. Turning to `Cc1ncc(N(C2CCOCC2)S(=O)(=O)NC(=O)Nc2c3c(cc4c2CCC4)CCC3)c(C)n1` [Compound 100], the IC50 lay within 1000 to 3000 nM. For `CC(C)c1cc(Cl)cc(NC(=O)NS(=O)(=O)N(c2cnn(C)c2)C2CCCN(C)C2)c1` (stereo not shown) [Compound 101], the IC50 is below 1000 nM.

In the case of `CCc1cc(NC(=O)NS(=O)(=O)N(C[C@@H]2CCCN2C)c2cnn(C)c2)cc(C(F)(F)F)c1` [Compound 102], the IC50 is below 1000 nM.

Take `Cc1nn(C)cc1N(C1CCCN(C)C1)S(=O)(=O)NC(=O)Nc1c2c(cc3c1CCC3)CCC2` (stereo not shown) [Compound 103]: the IC50 is below 1000 nM. In the case of `CC(C)c1ncc(N(C2CCOCC2)S(=O)(=O)NC(=O)Nc2c3c(cc4c2CCC4)CCC3)cn1` [Compound 104], the IC50 was below 1000 nM.

With `CCC(C)c1cc(Cl)cc(NC(=O)NS(=O)(=O)N(c2cnn(C)c2)C2CCOCC2)c1` (stereo not shown) [Compound 105], the IC50 was below 1000 nM. In the case of `Cn1cc(N(C2CCOCC2)S(=O)(=O)NC(=O)Nc2cc(Cl)cc(OCC(F)(F)F)c2)cn1` [Compound 106] it was below 1000 nM. In the case of `CN1CCC[C@H]1CN(c1cnn(C)c1)S(=O)(=O)NC(=O)Nc1c2c(cc3c1CCC3)CCC2` [Compound 107] it was below 1000 nM; in that of `Cc1csc(N(C2CCOCC2)S(=O)(=O)NC(=O)Nc2c3c(cc4c2CCC4)CCC3)n1` [Compound 108], below 1000 nM. For the compound `CCc1cc(N(C2CCOCC2)S(=O)(=O)NC(=O)Nc2c3c(cc4c2CCC4)CCC3)on1` [Compound 109], the IC50 is below 1000 nM.

For `CN1CCC[C@@H]1CN(c1cnn(C)c1)S(=O)(=O)NC(=O)Nc1c2c(cc3c1CCC3)CCC2` [Compound 110], the half-inhibitory concentration (IC50) was below 1000 nM.

With `CN1CCC1CN(c1cnn(C)c1)S(=O)(=O)NC(=O)Nc1c2c(cc3c1CCC3)CCC2` (stereo not shown) [Compound 111], the IC50 was below 1000 nM. On to `CN1CCC[C@@H]1CN(c1cnn(C)c1)S(=O)(=O)NC(=O)Nc1cc(Cl)cc(Cl)c1` [Compound 112], for which the IC50 was below 1000 nM. `Cc1cc(N(C2CCOCC2)S(=O)(=O)NC(=O)Nc2c3c(cc4c2CCC4)CCC3)sn1` [Compound 113]: the IC50 was below 1000 nM. With `CCc1cc(NC(=O)NS(=O)(=O)N(C[C@H]2CCCN2C)c2cnn(C)c2)cc(C(F)(F)F)c1` [Compound 114], the IC50 was below 1000 nM. As to `CCCCc1cc(Cl)cc(NC(=O)NS(=O)(=O)N(c2cnn(C)c2)C2CCOCC2)c1` [Compound 115], the IC50 is below 1000 nM.

Values taken from patent US12459925B2, “Sulphonyl urea derivatives as NLRP3 inflammasome modulators” (priority 2017, dated 2025).
